Results published in US20090111177A1, “Maintenance of Embryonic Stem Cells by the GSK-3 Inhibitor 6-Bromoindirubin-3'-Oxime” (THE ROCKEFELLER UNIVERSITY, priority 2003, published 2009).
“Also recorded” adds a separate entry of the source.

How the values were obtained:
Rex-1 promoter [1] = test: Rex-1 YFP reporter line CJRex-Y (imaging / FACS); type: cell-based, mouse; conditions: CJRex-Y cells, 5 d
Protocol: Generation of stable mouse ES lines. CJ7 ES cells were transfected with pRex-1-Venus, pTY or pCAG-HygEGFP by using Lipofectamine 2000 (Invitrogen) followed by G418 (Invitrogen) selection at 200 μg/ml (for CJRex-Y or CJ-TY) or hygromycine (Invitrogen) selection at 600 μg/ml (for CJ-GFP). Two weeks after the drug selection, a number of single colonies were picked up, expanded and used for the further analyses.
FACS analysis of MESCs. We cultured CJRex-Y cells at a low density (500 cells/cm^2) on gelatin-coated 10 cm dishes in mouse ES cell medium alone, medium containing LIF, medium conditioned from wild type L cells or medium conditioned from Wnt3a-L cells (ATCC) for 5 days. The Wnt3a conditioned medium was prepared according to the provider's protocol. Cells were harvested, resuspended in mouse ES medium and subjected to FACS analysis using FACSVantage SE system (BD Biosciences).

CJ-GFP cells (MESCs) = test: Low-density culture of CJ-GFP MESCs without LIF, morphology; type: cell-based, mouse; conditions: 1 μM; 7 d plus 5 d at low density; data not shown for Me analogue
Protocol: Teratoma formation. We grew CJ-GFP cells at a low density (500 cells/cm^2) on gelatin-coated 10 cm dishes in medium containing 6-bromoindirubin-3′-oxime 1 μM for 7 d, then passaged cells at the same density and cultured under the same condition another 5 d to further enforce differentiation of cells.

Rex-1 promoter [2] = test: Rex-1 luciferase reporter assay in CJ7 cells; type: cell-based, mouse
Source text: Nat Biotechnol 20, 87-90), a small fragment containing the TCF binding sites and the cFos promoter in pTopFlash was excised by XbaI digestion, and cloned into pcDNA3-Venus in which Venus was introduced into the multiple cloning site between BamHI and EcoRI of the pcDNA3 vector (Invitrogen) whose CMV promoter was eliminated by BglII and HindIII digestion. […] To generate the Rex-1-Venus reporter construct, the Rex-1 promoter region was cloned into pcDNA3-Venus.
(§1) Luciferase assay. […] Test compounds were added 24 hrs after transfection. Following incubation for 24 hrs, cells were harvested, and analyzed by the dual luciferase reporter assay system (Promega) using Lumat (Berthold Technologies). Each value was standardized by Renilla luciferase activity.

[3] = tested on: canonical Wnt pathway (TCF binding sites, TopFlash); test: TopFlash luciferase reporter assay in 293 cells; type: cell-based; conditions: 293 human kidney epithelial cells; micromolar concentrations; data not shown
Protocol: as §1
(§2) The canonical Wnt signal occurs through binding of the Wnt protein to the Frizzled receptor at cell surface. It is followed by inactivation of GSK-3, leading to accumulation of β-catenin in the nucleus that activates the transcription of Wnt target genes in collaboration with TCFs^18,19. Alternatively, Wnt signaling can be activated by direct, intracellular inhibition of the GSK-3 function using specific inhibitors^20. […] First we examined whether mouse and human ESCs were capable of transducing Wnt signaling under the influence of 6-bromoindirubin-3′-oxime. […] We then evaluated expression of β-catenin at the cellular level as a read-out of the activation status of the canonical Wnt pathway in HESCs.

[4] = tested on: canonical Wnt pathway (TCF binding sites, TopFlash); test: TopFlash/FopFlash luciferase reporter assay in CJ7 cells (MESCs); type: cell-based, mouse; conditions: FIG. 2b
Protocol: as §1, §2

HESCs (H1, BGN1) = test: Feeder-free culture of HESCs, undifferentiated morphology; type: cell-based, human; conditions: feeder-free, non-conditioned medium; 7 d; 6-bromoindirubin-3′-oxime and Me analogue 2 μM, LiCl 5 mM, Wnt3a protein
Protocol: Cell culture. Human embryonic stem cells (HESCs) lines were provided by WiCell Research Institute (H1 line)^5 and BresaGen Inc. (BGN1 and BGN2 lines). H1 cells were cultivated on irradiated mouse embryonic fibroblasts (MEFs) in medium consisting of 80% DMEM/F12 medium, 20% knockout serum replacement (KSR), 1 mM L-glutamine, 1% non-essential amino acids, 0.1 mM β-mercaptoethanol, and 4 ng/ml basic FGF (all from Invitrogen). […] Subsequently, HESCs were cultured on Matrigel (BD biosciences) in medium conditioned by MEFs, and passaged several times until colonies became free from contaminating MEFs as described before^9.

cyclin D1 = cyclin D1 immunofluorescence in HESCs; type: cell-based, human; conditions: HESCs (BGN2); non-CM; 6-bromoindirubin-3′-oxime 1.0 μM or Wnt3a protein 100 ng; FIG. 7
Protocol: Immunofluorescence. HESCs were grown in conditioned medium (CM), non-CM, non-CM containing Me 6-bromoindirubin-3′-oxime (1.0 μM), non-CM containing 6-bromoindirubin-3′-oxime (1.0 μM) or non-CM containing recombinant mouse Wnt3a protein (100 ng/ml, R&D systems) for 5 d. Cells were fixed in 4% paraformaldehyde for 20 min at room temperature and incubated overnight at 4° C. with primary antibodies against cyclin D1 (Santa Cruz Technology, Santa Cruz, Calif.). Antigens were localized by using goat anti-rabbit IgG conjugated to Cy3 (Zymed laboratories).

## O=C1Nc2cc(Br)ccc2/C1=C1/Nc2ccccc2/C1=N\O [6-bromoindirubin-3′-oxime]
Rex-1 promoter [1]; FIG. 3b
  colony morphology / cell shape: more compact than those observed in LIF-treated cells
Rex-1 promoter [1]; absence of LIF
  Rex-1 transcriptional (YFP reporter) activity: strong transcriptional activity
CJ-GFP cells (MESCs)
  colony morphology of MESCs without LIF: still formed round tight colonies
Rex-1 promoter [2]; CJ7 cells, compared to LIF-treated cells
  Rex-1 promoter activity: substantial upregulation
Rex-1 promoter [2]; cells transfected with dominant negative TCF-3
  Rex-1 transcriptional activation with dominant negative TCF-3 construct: largely abolished
[3]
  TopFlash reporter activity: robustly upregulated the reporter activity
[4]; CJ7 cells (MESCs)
  TopFlash reporter activity: remarkable increase in TopFlash reporter activity in a dose-dependent manner
[4]; CJ7 cells, non-responsive mutated binding sites
  FopFlash reporter activity: no substantial change in FopFlash reporter activity
HESCs (H1, BGN1)
  morphology / undifferentiated phenotype of HESCs: largely retained an undifferentiated morphology
Cyclin D1
  cyclin D1 expression: upregulated; also recorded: up-regulated cyclin D1 expression
